Assays:
[1] = system: SH-SY5Y cells; experiment: Rotenone-treated SH-SY5Y cells: mitochondrial membrane potential; type: cell-based, human; conditions: rotenone 1 μM; HY08 0.3 μM; NAC 1 μM
[2] = system: SH-SY5Y cells; experiment: Intracellular 4-HNE levels in fatty acid-treated SH-SY5Y cells; type: cell-based, human; conditions: 50 μM

Row | SMILES | rotenone-induced mitochondrial membrane potential loss and cell death [1] | intracellular 4-HNE production [2]
1 | CC(=O)N[C@@H](CS)C(=O)O [NAC, N-Acetyl cysteine] | exerted inhibitory effects | 
2 | CCCCC/C=C\C/C=C\C/C=C\C/C=C\CCCC(=O)O [AA, arachidonic acid] |  | significantly enhanced
